Experimental data from PMC1925066, “Optical biosensor differentiates signaling of endogenous PAR1 and PAR2 in A431 cells” (BMC Cell Biology, 2007).
Where a SMILES comes first, the peptide text is derived from it.

How the values were obtained:
[1] = test system: EGFR in A431 cells; test: Interference of EGFR activation with PAR signaling, DMR signal; type: cell-based, human
Source text: (§1) A431 cells express large numbers of EGF receptors. AG1478 is a potent and selective EGFR tyrosine kinase inhibitor. It is also known that cholesterol removal by mβCD triggers a ligand-independent transactivation of EGFR in A431 cells. Thus, we were interested the interference of EGFR activation with PAR signaling. The preceding stimulation with EGF had little effect on the Ca^2+ mobilization induced by trypsin (Fig. 9a) or thrombin (data not shown).
(§2) Figure 9 The effect of preceding EGF stimulation on PAR signaling. (a) The Ca^2+ mobilization. (b, c) The DMR signals. The ligands were EGF (100 nM), trypsin (100 nM), and thrombin (40 unit/ml). The cell responses with the pre-treatment with the HBSS only were also included as control.
(§3) Corning® Epic™ angular interrogation system with transverse magnetic or p-polarized TM0 mode was used for all studies. The detailed instrumental setup and assay protocols had been previously described. Briefly, all compound solutions were prepared using 1 × HBSS containing minimal amount of dimethyl sulfoxide, while the starved cells were washed and maintained with 100 μl the serum-free DMEM. The cells were then treated with 50 μl 1 × HBSS buffered solution in the absence and presence of a compound, followed by stimulation with ligand solutions. The cellular responses were monitored in real time throughout the assays.

[2] = test system: EGFR in A431 cells; design: method as in PMID 16766609; settings: blockage of EGFR tyrosine kinase activity in A431; cited from earlier work
[3] = test system: endogenous PAR1 and PAR2 in A431 cells; test: Fluo-3 Ca2+ mobilization (Ca2+ flux) assay in quiescent A431 cells; type: cell-based, human; settings: for maximal [Ca^2+]i elevation: SFLLR-amide at 80 μM; for responsiveness (Ca^2+ mobilization) after pre-stimulation with thrombin: thrombin 40 unit/ml first; for Ca^2+ mobilization response after pre-stimulation with trypsin: trypsin 200 nM first, repeated stimulation separated by 6 min; for rapid and transient increase in intracellular Ca^2+: quiescent A431 cells
Experimental: (§4) Human epidermoid carcinoma A431 cells ([…]) were grown in Dulbecco's modified Eagle's medium (DMEM) supplemented with 10% fetal bovine serum (FBS), 4.5 g/liter glucose, 2 mM glutamine, and antibiotics. ~5 × 10^4 cells at passage 3 to 8 suspended in 200 μl the DMEM medium containing 10% FBS were placed in each well of a 96well microplate, and were cultured at 37°C under air/5% CO2 for ~2 days, followed by ~20 hr starvation through continuously culturing in the serum-free DMEM.
Cells were grown in Costar™ 96well clear cell culture microplates. After starvation, the cells were washed with 1× HBSS (1× regular Hank's balanced salt solution, 20 mM HEPES buffer, pH 7.0) in the presence of 2.5 mM probenicid, and labeled in the same buffer containing 4 μM Fluo-3 for 1 hour at room temperature. The cells were then washed twice with buffer, maintained with 100 μl 1× HBSS containing 2.5 mM probenicid. The assay was initiated by transferring 50 μl PAR agonist solution to the cell plate, and calcium signal was recorded over 6 minutes with a 6 sec interval using HTS7000 BioAssay Reader (PerkinElmer Life Science, Boston, MA). The fluorescent intensity before stimulation was recorded and used as a baseline. The percentage increase in fluorescence intensity after stimulation, relative to the baseline fluorescence, was analyzed and used directly as a measure for the increase of intracellular Ca^2+ level induced by PAR agonists.
(§5) Unless specifically mentioned, three replicates were carried out for each measurement or each compound. The standard deviation was derived from these measurements (n = 3). […] All dose-dependent responses were analyzed using non-linear regression method with the Prism software (Graph Pad).

[4] = test system: endogenous PAR1 and PAR2 in A431 cells; test: MRCAT resonant waveguide grating biosensor DMR assay in quiescent A431 cells; type: cell-based, human; settings: for effect of preceding stimulation on trypsin-induced DMR signal: trypsin 200 nM; for desensitization of trypsin-treated cells (DMR signal): trypsin 200 nM first, repeated stimulation separated by ~1 hr; for Gq-type DMR signal: quiescent A431 cells, 20 μM
Experimental: as §4, §3, §5

[5] = test system: cell surface cholesterol of A431 cells; test: Effect of cholesterol depletion (cyclodextrin pre-treatment) on agonist-induced Ca2+ mobilization; type: cell-based, human; settings: for IC50: one-phase decay fit
Source text: Since the physiological significance of co-expression of two receptors in A431 is unclear, we were interested in the possibility of differentiated regulation of PAR1 and PAR2 signaling. A common mechanism for the cell to regulate and differentiate receptor signaling is compartmentalization of receptors and/or their signaling components. Amassing evidences support the hypothesis that there are many cholesterol-rich microdomains at the cell surface membrane, although their characteristics are still under extensive investigations. Such microdomain is believed to enable the sorting and segregation of receptors and their signaling cascades, thus regulating cell signaling. Methyl-β-cyclodextrin (mβCD) has been widely used to extract cell surface choleterol primarily through effluxing, thus disrupting these cholesterol-rich microdomains. Thus, we examined the effect of cholesterol depletion by mβCD on both Ca^2+ mobilization and DMR responses induced by thrombin and trypsin. […] Both dose-dependent inhibition curves appeared fit well with a one-phase decay non-linear regression, leading to an almost identical half-concentration (C1/2 of ~1.5 mM) of mβCD. This is consistent with the fact that mβCD results in rapid effluxing of cell membrane cholesterol molecules; and the amount of remain cell surface cholesterol depends on the concentration of mβCD in solution [27]. The higher concentration mβCD is, the less cholesterol is retained at the cell surface membrane. […]
(§6) Cells were grown in Costar™ 96well clear cell culture microplates. […] The assay was initiated by transferring 50 μl PAR agonist solution to the cell plate, and calcium signal was recorded over 6 minutes with a 6 sec interval using HTS7000 BioAssay Reader (PerkinElmer Life Science, Boston, MA). The fluorescent intensity before stimulation was recorded and used as a baseline. The percentage increase in fluorescence intensity after stimulation, relative to the baseline fluorescence, was analyzed and used directly as a measure for the increase of intracellular Ca^2+ level induced by PAR agonists.

[6] = test system: A431 cells; test: Cell toxicity / cell detachment from the biosensor surface; type: cell-based, human; settings: high doses (>8 mM)
[7] = test system: cell surface cholesterol of A431 cells; test: Effect of cholesterol depletion (cyclodextrin pre-treatment) on agonist-induced DMR signals; type: cell-based, human
Experimental: Similarly, the mβCD pre-treatment also led to a dose-dependent attenuation of the DMR signals induced by thrombin or trypsin (Fig. 7). However, there is a clear distinction between the inhibition curves of trypsin- and thrombin-induced DMR signals by mβCD. […] As expected, αCD up to 8 mM had little effect on both agonist-induced DMR responses. […] A23187 is a Ca^2+ ionophore, and is able to release stored Ca^2+ from the endoplasmic reticulum in cells.
Figure 7 Cholesterol removal attenuates the agonist-induced DMR signals. mβCD was used to deplete cell surface cholesterol. Its effect on the amplitudes of the P-DMR events induced by (a) thrombin (40 unit/ml) or (b) trypsin (200 nM) was analyzed. In comparison, the effect of αCD was also included. (c) The DMR signals of A431 cells induced by A23187 without or with the pre-treatment with 5 mM mβCD.
as §3

[8] = test system: EGFR in A431 cells; test: Interference of EGFR activation with PAR signaling, Ca2+ mobilization; type: cell-based, human; settings: EGF 100 nM; trypsin 100 nM, thrombin 40 unit/ml
Source text: as §1, §2, §6

[9] = 100 nM, trypsin 100 nM, thrombin 40 unit/ml

Compound: COc1cc2ncnc(Nc3cccc(Cl)c3)c2cc1OC [AG1478]
- effect of pre-treatment on inhibition of trypsin-induced DMR by cholesterol depletion ([1]; data not shown): did not counter the inhibitory effect
- effect on trypsin-induced DMR signal [2]: partially attenuated

Compound: CC[C@H](C)[C@H](NC(=O)[C@H](CC(C)C)NC(=O)[C@@H](N)CO)C(=O)NCC(=O)N[C@@H](CCCCN)C(=O)N[C@H](C(N)=O)C(C)C [SLIGKV-amide] (H-SLIGKV-NH2; N-terminus assumed)
- maximal [Ca^2+]i elevation ([3]; A431 cells): 52 ± 6%
- EC50 ([3]; A431 cells, read-out: EC50 (n = 3) Ca^2+ flux assay): 3.8 ± 0.4 µM
- effect of preceding stimulation on trypsin-induced Ca^2+ mobilization ([3]; peptide 20 μM first, then trypsin 200 nM, separated by 6 min): partially attenuated
- responsiveness (Ca^2+ mobilization) after pre-stimulation with thrombin ([3]; separated by 6 min): not
- Ca^2+ mobilization response after pre-stimulation with trypsin [3]: completely blocked
- EC50 ([4]; A431 cells, amplitude of N-DMR event, read-out: EC50 (n = 3) N-DMR): 9.1 ± 2.2 µM
- EC50 ([4]; A431 cells, amplitude of P-DMR event, read-out: EC50 (n = 3) P-DMR): 6.1 ± 1 µM
- DMR signals in cells with or without pre-stimulation with thrombin ([4]; separated by ~1 hr): almost identical DMR signals
- effect of preceding stimulation on trypsin-induced DMR signal ([4]; separated by ~1 hr): only partially attenuated
- desensitization of trypsin-treated cells (DMR signal) [4]: only partially

Compound: OC[C@H]1O[C@@H]2O[C@H]3[C@H](O)[C@@H](O)[C@@H](O[C@H]4[C@H](O)[C@@H](O)[C@@H](O[C@H]5[C@H](O)[C@@H](O)[C@@H](O[C@H]6[C@H](O)[C@@H](O)[C@@H](O[C@H]7[C@H](O)[C@@H](O)[C@@H](O[C@H]1[C@H](O)[C@H]2O)O[C@@H]7CO)O[C@@H]6CO)O[C@@H]5CO)O[C@@H]4CO)O[C@@H]3CO [αCD, α-cyclodextrin]
- effect on trypsin and thrombin-induced Ca^2+ mobilization responses ([5]; up to 8 mM): little effect
- cell toxicity and cell detachment from the biosensor surface [6]: detectable cell toxicity
- effect on both agonist-induced (thrombin, trypsin) DMR responses ([7]; up to 8 mM): little effect

Compound: GYPGQV
- rapid and transient increase in intracellular Ca^2+ [3]: only PAR1 and PAR2 agonists resulted in
- Gq-type DMR signal [4]: only PAR1 and PAR2 agonists resulted in

Compound: Methyl-β-cyclodextrin [mβCD]
- IC50 ([5]; thrombin 40 unit/ml, read-out: half-concentration (C1/2) for suppression of thrombin-induced Ca^2+ mobilization): ~1500 µM
- IC50 ([5]; trypsin 200 nM, read-out: half-concentration (C1/2) for suppression of trypsin-induced Ca^2+ mobilization): ~1500 µM
- effect on DMR signal induced by 5 μM A23187 ([7]; pre-treatment at 5 mM): little effect
- IC50 ([7]; thrombin 40 unit/ml, P-DMR amplitude, read-out: C1/2 for suppression of thrombin-induced DMR): 1200 ± 300 µM
- IC50 ([7]; trypsin 200 nM, 2-phase decay, read-out: C1/2 for inhibition of trypsin-mediated DMR, first phase): 5000 ± 1000 µM
- IC50 ([7]; trypsin 200 nM, 2-phase decay, read-out: C1/2 for inhibition of trypsin-mediated DMR, second phase): 11000 ± 2000 µM

Compound: TFRGAP
- rapid and transient increase in intracellular Ca^2+ [3]: only PAR1 and PAR2 agonists resulted in
- Gq-type DMR signal [4]: only PAR1 and PAR2 agonists resulted in

Compound: Thrombin: serine protease, PAR1 agonist, purchased from Sigma
- EC50 (n = 3) Ca^2+ flux assay ([3]; A431 cells): 6.0 ± 1.0 unit/ml
- maximal [Ca^2+]i elevation ([3]; A431 cells): 48 ± 4%
- responsiveness (Ca^2+ mobilization) after pre-stimulation with thrombin ([3]; separated by 6 min): completely inhibited
- Ca^2+ mobilization response after pre-stimulation with trypsin [3]: completely blocked
- EC50 (n = 3) N-DMR ([4]; A431 cells, amplitude of N-DMR event): 11.0 ± 1.9 unit/ml
- EC50 (n = 3) P-DMR ([4]; A431 cells, amplitude of P-DMR event): 9.6 ± 2.0 unit/ml
- effect of preceding stimulation on trypsin-induced DMR signal ([4]; separated by ~1 hr): only partially attenuated
- desensitization of trypsin-treated cells (DMR signal) [4]: completely desensitized

Compound: bradykinin (RPPGFSPFR; Bradykinin; UniProt P01042 381-389, looked up) [agonist for bradykinin B2 receptor]
- Ca^2+ mobilization response after pre-stimulation with PAR agonists ([3]; bradykinin 100 nM, separated by 6 min): neither of PAR agonists examined had any effect
- effect of preceding stimulation on DMR signal induced by any PAR agonist ([4]; bradykinin 100 nM first, separated by ~1 hr): no obvious effect
- desensitization of trypsin-treated cells (DMR signal) [4]: not

Compound: epidermal growth factor (NSDSECPLSHDGYCLHDGVCMYIEALDKYACNCVVGYIGERCQYRDLKWWELR; UniProt P01133 971-1023, looked up) [EGF, epidermal growth factor, purchased from Sigma]
- effect of preceding stimulation on Ca^2+ mobilization induced by trypsin or thrombin [8]: little effect
- effect on N-DMR event induced by either trypsin or thrombin [1, 9]: almost completely inhibited
- effect on P-DMR event induced by either trypsin or thrombin [1, 9]: only slightly attenuated
